Converted amounts (≈) assume the structure as drawn. The source made the active and inactive calls. No cut-off for these calls is given here.
Legend:
Escherichia coli [1] = test: Antibacterial activity against Escherichia coli ATCC 25922 assessed as bacterial growth inhibition after 8 hrs by turbidimetric plate reader method; assay type: functional; settings: for MBC: ATCC 25922, 8 h
Bacillus subtilis [2] = test: Downregulation of yhdT gene expression in Bacillus subtilis ATCC 6051 at 50 umol/L after 8 hrs by real time RT-PCR; assay type: functional, organism-based
Escherichia coli [3] = test: Downregulation of tsh gene expression in Escherichia coli ATCC 25922 at 50 umol/L after 8 hrs by semi-quantitative RT-PCR; assay type: functional, organism-based
Escherichia coli [4] = test: Upregulation of cysB gene expression in Escherichia coli ATCC 25922 at 50 umol/L after 8 hrs by real time RT-PCR; assay type: functional, organism-based
Bacillus subtilis [5] = test: Antibacterial activity against Bacillus subtilis ATCC 6051 assessed as bacterial growth inhibition after 8 hrs by turbidimetric plate reader method; assay type: functional; settings: for MBC: ATCC 6051, 8 h
Escherichia coli [6] = test: Upregulation of acrA gene expression in Escherichia coli ATCC 25922 at 50 umol/L after 8 hrs by semi-quantitative RT-PCR; assay type: functional, organism-based
Acinetobacter baumannii [7] = test: Antibacterial activity against Acinetobacter baumannii ATCC BAA-1710D assessed as bacterial growth inhibition after 8 hrs by turbidimetric plate reader method; assay type: functional
Bacillus subtilis [8] = test: Downregulation of yqhC gene expression in Bacillus subtilis ATCC 6051 at 50 umol/L after 8 hrs by real time RT-PCR; assay type: functional, organism-based
Escherichia coli [9] = test: Downregulation of iroD gene expression in Escherichia coli ATCC 25922 at 50 umol/L after 8 hrs by semi-quantitative RT-PCR; assay type: functional, organism-based
Bacillus subtilis [10] = test: Downregulation of yqhB gene expression in Bacillus subtilis ATCC 6051 at 50 umol/L after 8 hrs by real time RT-PCR; assay type: functional, organism-based
Bacillus subtilis [11] = test: Downregulation of yqhC gene expression in Bacillus subtilis ATCC 6051 at 50 umol/L after 8 hrs by semi-quantitative RT-PCR; assay type: functional, organism-based
Bacillus subtilis [12] = test: Antibacterial activity against Bacillus subtilis ATCC 6051 assessed as bacterial growth inhibition at 50 umol/L after 8 hrs by turbidimetric plate reader method; assay type: functional, organism-based
Escherichia coli [13] = test: Downregulation of iroD gene expression in Escherichia coli ATCC 25922 at 50 umol/L after 8 hrs by real time RT-PCR; assay type: functional, organism-based
Escherichia coli [14] = test: Downregulation of tsh gene expression in Escherichia coli ATCC 25922 at 50 umol/L after 8 hrs by real time RT-PCR; assay type: functional, organism-based
Escherichia coli [15] = test: Antibacterial activity against Escherichia coli ATCC 25922 assessed as bacterial growth inhibition at 50 umol/L after 8 hrs by turbidimetric plate reader method; assay type: functional, organism-based
Bacillus subtilis [16] = test: Downregulation of yhdT gene expression in Bacillus subtilis ATCC 6051 at 50 umol/L after 8 hrs by semi-quantitative RT-PCR; assay type: functional, organism-based
Escherichia coli [17] = test: Upregulation of cysB gene expression in Escherichia coli ATCC 25922 at 50 umol/L after 8 hrs by semi-quantitative RT-PCR; assay type: functional, organism-based
Klebsiella pneumoniae [18] = test: Antibacterial activity against Klebsiella pneumoniae ATCC BAA-1705 assessed as bacterial growth inhibition after 8 hrs by turbidimetric plate reader method; assay type: functional; settings: for MBC: ATCC BAA-1705, 8 h
Bacillus subtilis [19] = test: Downregulation of yqhB gene expression in Bacillus subtilis ATCC 6051 at 50 umol/L after 8 hrs by semi-quantitative RT-PCR; assay type: functional, organism-based
Escherichia coli [20] = test: Upregulation of acrA gene expression in Escherichia coli ATCC 25922 at 50 umol/L after 8 hrs by real time RT-PCR relative to gapA; assay type: functional, organism-based
Klebsiella pneumoniae [21] = test: Antibacterial activity against Klebsiella pneumoniae ATCC BAA-1705 assessed as bacterial growth inhibition at 50 umol/L after 8 hrs by turbidimetric plate reader method; assay type: functional, organism-based
Acinetobacter baumannii [22] = test: Antibacterial activity against Acinetobacter baumannii ATCC BAA-1710D assessed as bacterial growth inhibition at 50 umol/L after 8 hrs by turbidimetric plate reader method; assay type: functional, organism-based
Klebsiella pneumoniae [23] = test: Upregulation of IMP gene expression in Klebsiella pneumoniae ATCC BAA-1705 at 50 umol/L after 8 hrs by semi-quantitative RT-PCR; assay type: functional, organism-based
Klebsiella pneumoniae [24] = test: Upregulation of VEB gene expression in Klebsiella pneumoniae ATCC BAA-1705 at 50 umol/L after 8 hrs by semi-quantitative RT-PCR; assay type: functional, organism-based
Klebsiella pneumoniae [25] = test: Upregulation of GES gene expression in Klebsiella pneumoniae ATCC BAA-1705 at 50 umol/L after 8 hrs by real time RT-PCR; assay type: functional, organism-based
Klebsiella pneumoniae [26] = test: Upregulation of PER-2 gene expression in Klebsiella pneumoniae ATCC BAA-1705 at 50 umol/L after 8 hrs by semi-quantitative RT-PCR; assay type: functional, organism-based
Klebsiella pneumoniae [27] = test: Downregulation of ldhD gene expression in Klebsiella pneumoniae ATCC BAA-1705 at 50 umol/L after 8 hrs by real time RT-PCR; assay type: functional, organism-based
Klebsiella pneumoniae [28] = test: Upregulation of GES gene expression in Klebsiella pneumoniae ATCC BAA-1705 at 50 umol/L after 8 hrs by semi-quantitative RT-PCR; assay type: functional, organism-based
Klebsiella pneumoniae [29] = test: Upregulation of VEB gene expression in Klebsiella pneumoniae ATCC BAA-1705 at 50 umol/L after 8 hrs by real time RT-PCR; assay type: functional, organism-based
Klebsiella pneumoniae [30] = test: Upregulation of PER-2 gene expression in Klebsiella pneumoniae ATCC BAA-1705 at 50 umol/L after 8 hrs by real time RT-PCR; assay type: functional, organism-based
Klebsiella pneumoniae [31] = test: Downregulation of ldhD gene expression in Klebsiella pneumoniae ATCC BAA-1705 at 50 umol/L after 8 hrs by semi-quantitative RT-PCR; assay type: functional, organism-based
Klebsiella pneumoniae [32] = test: Upregulation of IMP gene expression in Klebsiella pneumoniae ATCC BAA-1705 at 50 umol/L after 8 hrs by real time RT-PCR; assay type: functional, organism-based
Acinetobacter baumannii [33] = test: Upregulation of VEB gene expression in Acinetobacter baumannii ATCC BAA-1710D at 50 umol/L after 8 hrs by real time RT-PCR; assay type: functional, organism-based
Acinetobacter baumannii [34] = test: Downregulation of PER gene expression in Acinetobacter baumannii ATCC BAA-1710D at 50 umol/L after 8 hrs by semi-quantitative RT-PCR; assay type: functional, organism-based
Acinetobacter baumannii [35] = test: Upregulation of SHV gene expression in Acinetobacter baumannii ATCC BAA-1710D at 50 umol/L after 8 hrs by real time RT-PCR; assay type: functional, organism-based
Acinetobacter baumannii [36] = test: Upregulation of TEM gene expression in Acinetobacter baumannii ATCC BAA-1710D at 50 umol/L after 8 hrs by semi-quantitative RT-PCR; assay type: functional, organism-based
Acinetobacter baumannii [37] = test: Upregulation of CARB gene expression in Acinetobacter baumannii ATCC BAA-1710D at 50 umol/L after 8 hrs by real time RT-PCR; assay type: functional, organism-based
Acinetobacter baumannii [38] = test: Downregulation of PER gene expression in Acinetobacter baumannii ATCC BAA-1710D at 50 umol/L after 8 hrs by real time RT-PCR; assay type: functional, organism-based
Acinetobacter baumannii [39] = test: Upregulation of TEM gene expression in Acinetobacter baumannii ATCC BAA-1710D at 50 umol/L after 8 hrs by real time RT-PCR; assay type: functional, organism-based
Acinetobacter baumannii [40] = test: Upregulation of CARB gene expression in Acinetobacter baumannii ATCC BAA-1710D at 50 umol/L after 8 hrs by semi-quantitative RT-PCR; assay type: functional, organism-based
Acinetobacter baumannii [41] = test: Upregulation of SHV gene expression in Acinetobacter baumannii ATCC BAA-1710D at 50 umol/L after 8 hrs by semi-quantitative RT-PCR; assay type: functional, organism-based
Acinetobacter baumannii [42] = test: Upregulation of VEB gene expression in Acinetobacter baumannii ATCC BAA-1710D at 50 umol/L after 8 hrs by semi-quantitative RT-PCR; assay type: functional, organism-based
Acinetobacter baumannii [43] = test: Downregulation of GES gene expression in Acinetobacter baumannii ATCC BAA-1710D at 50 umol/L after 8 hrs by semi-quantitative RT-PCR; assay type: functional, organism-based
Acinetobacter baumannii [44] = test: Downregulation of GES gene expression in Acinetobacter baumannii ATCC BAA-1710D at 50 umol/L after 8 hrs by real time RT-PCR; assay type: functional, organism-based

## CC1(C)CC[C@]2(C(=O)OCc3ccccc3C#N)CC[C@]3(C)C(=CC[C@@H]4[C@@]5(C)[C@H]6O[C@H]6[C@H](O)C(C)(C)[C@@H]5CC[C@]43C)[C@@H]2C1
Escherichia coli [1]
  growth inhibition (GI): Dose-dependent effect
  MBC: 5.3 µM (≈ 3.1 µg/mL)
Bacillus subtilis [2]
  Activity: Active
Escherichia coli [3]
  Activity: Active
Escherichia coli [4]
  Activity: Active
Bacillus subtilis [5]
  growth inhibition (GI): Dose-dependent effect
  MBC: 2 µM (≈ 1.17 µg/mL)
Escherichia coli [6]
  Activity: Active
Acinetobacter baumannii [7]
  growth inhibition (GI): Dose-dependent effect
Bacillus subtilis [8]
  Activity: Active
Escherichia coli [9]
  Activity: Active
Bacillus subtilis [10]
  Activity: Active
Bacillus subtilis [11]
  Activity: Active
Bacillus subtilis [12]
  growth inhibition (GI): Active
Escherichia coli [13]
  Activity: Active
Escherichia coli [14]
  Activity: Active
Escherichia coli [15]
  growth inhibition (GI): Active
Bacillus subtilis [16]
  Activity: Active
Escherichia coli [17]
  Activity: Active
Klebsiella pneumoniae [18]
  growth inhibition (GI): Dose-dependent effect
Bacillus subtilis [19]
  Activity: Active
Escherichia coli [20]
  Activity: Active

## CN[C@@H]1[C@H](O[C@H]2[C@H](O[C@H]3[C@H](O)[C@@H](O)[C@H](N=C(N)N)[C@@H](O)[C@@H]3N=C(N)N)O[C@@H](C)[C@]2(O)C=O)O[C@@H](CO)[C@H](O)[C@H]1O [STREPTOMYCIN]
Bacillus subtilis [5]
  MBC: 2.1 µM (≈ 1.22 µg/mL)
Klebsiella pneumoniae [18]
  MBC: 1.3 µM (≈ 0.756 µg/mL)

## CC1(C)S[C@@H]2[C@H](NC(=O)[C@H](N)c3ccccc3)C(=O)N2[C@H]1C(=O)O [AMPICILLIN]
Escherichia coli [1]
  MBC: 1.8 µM (≈ 0.629 µg/mL)

## CO[C@H]1[C@@H]2O[C@@H]2[C@]2(C)[C@H]3CC=C4[C@@H]5CC(C)(C)CC[C@]5(C(=O)O)CC[C@@]4(C)[C@]3(C)CC[C@H]2C1(C)C
Klebsiella pneumoniae [21]
  growth inhibition (GI): inactive
Acinetobacter baumannii [22]
  growth inhibition (GI): inactive
Bacillus subtilis [12]
  growth inhibition (GI): inactive
Escherichia coli [15]
  growth inhibition (GI): inactive

## CCOC(=O)[C@]12CCC(C)(C)C[C@H]1C1=CC[C@@H]3[C@@]4(C)[C@H]5O[C@H]5[C@H](O)C(C)(C)[C@@H]4CC[C@@]3(C)[C@]1(C)CC2
Klebsiella pneumoniae [21]
  growth inhibition (GI): Active
Escherichia coli [1]
  growth inhibition (GI): Dose-dependent effect
Klebsiella pneumoniae [23]
  Activity: Active
Klebsiella pneumoniae [24]
  Activity: Active
Bacillus subtilis [5]
  growth inhibition (GI): Dose-dependent effect
Acinetobacter baumannii [7]
  growth inhibition (GI): Dose-dependent effect
Klebsiella pneumoniae [25]
  Activity: inactive
Klebsiella pneumoniae [26]
  Activity: Active
Klebsiella pneumoniae [27]
  Activity: Active
Klebsiella pneumoniae [28]
  Activity: inactive
Klebsiella pneumoniae [18]
  growth inhibition (GI): Dose-dependent effect
  MBC: 1.8 µM (≈ 0.898 µg/mL)
Klebsiella pneumoniae [29]
  Activity: Active
Klebsiella pneumoniae [30]
  Activity: Active
Klebsiella pneumoniae [31]
  Activity: Active
Klebsiella pneumoniae [32]
  Activity: Active

## CCCOC(=O)[C@]12CCC(C)(C)C[C@H]1C1=CC[C@@H]3[C@@]4(C)[C@H]5O[C@H]5[C@H](O)C(C)(C)[C@@H]4CC[C@@]3(C)[C@]1(C)CC2
Klebsiella pneumoniae [21]
  growth inhibition (GI): Active
Escherichia coli [1]
  growth inhibition (GI): Dose-dependent effect
Klebsiella pneumoniae [23]
  Activity: Active
Klebsiella pneumoniae [24]
  Activity: Active
Bacillus subtilis [5]
  growth inhibition (GI): Dose-dependent effect
Acinetobacter baumannii [7]
  growth inhibition (GI): Dose-dependent effect
Klebsiella pneumoniae [25]
  Activity: inactive
Klebsiella pneumoniae [26]
  Activity: Active
Klebsiella pneumoniae [27]
  Activity: Active
Klebsiella pneumoniae [28]
  Activity: inactive
Klebsiella pneumoniae [18]
  growth inhibition (GI): Dose-dependent effect
  MBC: 1.5 µM (≈ 0.769 µg/mL)
Klebsiella pneumoniae [29]
  Activity: Active
Klebsiella pneumoniae [30]
  Activity: Active
Klebsiella pneumoniae [31]
  Activity: Active
Klebsiella pneumoniae [32]
  Activity: Active

## CC(=O)O[C@H]1[C@@H]2O[C@@H]2[C@]2(C)[C@H]3CC=C4[C@@H]5CC(C)(C)CC[C@]5(C(=O)O)CC[C@@]4(C)[C@]3(C)CC[C@H]2C1(C)C
Escherichia coli [1]
  growth inhibition (GI): Dose-dependent effect
Acinetobacter baumannii [33]
  Activity: Active
Acinetobacter baumannii [34]
  Activity: Active
Acinetobacter baumannii [35]
  Activity: Active
Acinetobacter baumannii [22]
  growth inhibition (GI): Active
Bacillus subtilis [5]
  growth inhibition (GI): Dose-dependent effect
Acinetobacter baumannii [7]
  MBC: 2.8 µM (≈ 1.44 µg/mL)
  growth inhibition (GI): Dose-dependent effect
Acinetobacter baumannii [36]
  Activity: Active
Acinetobacter baumannii [37]
  Activity: Active
Acinetobacter baumannii [38]
  Activity: Active
Acinetobacter baumannii [39]
  Activity: Active
Acinetobacter baumannii [40]
  Activity: Active
Acinetobacter baumannii [41]
  Activity: Active
Klebsiella pneumoniae [18]
  growth inhibition (GI): Dose-dependent effect
Acinetobacter baumannii [42]
  Activity: Active
Acinetobacter baumannii [43]
  Activity: Active
Acinetobacter baumannii [44]
  Activity: Active

## NC[C@H]1O[C@H](O[C@H]2[C@H](O)[C@@H](O[C@H]3O[C@H](CO)[C@@H](O)[C@H](N)[C@H]3O)[C@H](N)C[C@@H]2N)[C@H](O)[C@@H](O)[C@@H]1O [KANAMYCIN]
Acinetobacter baumannii [7]
  MBC: 1.6 µM (≈ 0.775 µg/mL)

Source: ChEMBL document CHEMBL4425161, “1α,2α-Epoxy-3β-hydroxy oleanolic acid derivatives regulation of the metabolism, haemolysis and β-lactamase gene expression in vitro and their structure-microbicidal activity relationship” (2016)
